In US5852016A, “Quinoxaline derivatives useful in therapy” (Pfizer Inc., priority 1994, dated 1998):

Target: T1, glycine site of the NMDA receptor (Rattus norvegicus, UniProt P35439)
T1 construct: displace a selective glycine site radioligand from rat brain membranes; from tissue; host or cells: rat brain membranes
Assay: Binding affinity for the glycine site of the NMDA receptor (test (a))
Conditions: displacement of selective glycine site radioligand ([3H]-L-689,560) from rat brain membranes
Protocol: (a) Binding affinity for the glycine site of the NMDA receptor
This may be measured by testing a compound's ability to displace a selective glycine site radioligand from rat brain membranes as described in Brit J Pharm (1991), 104, 74. In a variation of this method, thoroughly washed membrane protein is incubated with [^3 H]-L-689,560 for 90 minutes using tris-acetate buffer (pH 7.4). Displacement of the radioligand, using a range of test compound concentrations, is used to derive IC50 (50% inhibitory concentration) values.

SMILES	IC50 [nM]
CS(=O)(=O)N(CCO)c1c(Cl)c(Cl)cc2[nH]c(=O)c(=O)[nH]c12 (racemic) [Example 17, (RS)-N-(f1,4-Dihydro-6,7-dichloro-2,3-dioxoquinoxaline-5-yl)-N-(2-hydroxyethyl)methanesulphonamide]	< 50
CS(=O)(=O)N(CC(=O)O)c1c(Cl)c(Cl)cc2[nH]c(=O)c(=O)[nH]c12 (racemic) [Example 70, (RS)-N-(Carboxymethyl)-N-(1,4-dihydro-6,7-dichloro-2,3-dioxoquinoxaline-5-yl)methanesulphonamide]	< 50
CCS(=O)(=O)Nc1c(Cl)c(Cl)cc2[nH]c(=O)c(=O)[nH]c12 [Example 1, N-(1,4-Dihydro-6,7-dichloro-2,3-dioxoguinoxalin-5-yl)ethanesulphonamide]	< 50
CN(c1c(Cl)c(Cl)cc2[nH]c(=O)c(=O)[nH]c12)S(C)(=O)=O [Example 8]	< 50
CS(=O)(=O)N(CCCO)c1c(Cl)c(Cl)cc2[nH]c(=O)c(=O)[nH]c12 [Example 29]	< 50
CCc1c(Cl)cc2[nH]c(=O)c(=O)[nH]c2c1N(CCO)S(C)(=O)=O [Example 40]	< 50
Cn1c(CN(c2c(Cl)c(Cl)cc3[nH]c(=O)c(=O)[nH]c23)S(C)(=O)=O)nc2ccccc21 [Example 56]	< 50
